# From US11491244B2, “Labeled fluorocarbon agents for positron emission tomography imaging” (McMaster University, priority 2017, dated 2022)
# Entries after “also recorded” stand apart in the source; their conditions may differ.
# Experiments:
# [1] = Solubility of the fluorinated product in fluorocarbons; type: physicochemical
# [2] = neat perfluorocarbon; cited from earlier work
# [3] = Stability of [18F]CF3(CF2)7(CH2)3F in water, with and without sonication; type: physicochemical
# Experimental: [^18F]CF3(CF2)7(CH2)3F (125 MBq) in FC-72 (2 mL) was separated into 4 equal samples, and water (0.5 mL) was added to each with stirring. At 0.5, 1, 2 and 4 h, the water layer was removed and the amount of activity measured. In addition, [^18F]CF3(CF2)7(CH2)3F (28 MBq) in FC-72 (130 μL) and DI water (2 mL) was suspended in ice and sonicated using a Branson, Digital S450D Sonifier (Emerson Canada, Markham, ON, Canada) for 10 min at 10% amplitude, using 1 second on-1 second off pulses. The samples were centrifuged and the activity in the aqueous layers were measured using a gamma counter.
# The focus shifted to using precursors with a propyl spacer in an attempt to minimize the influence of the electron withdrawing fluorine groups. The mesylate CF3(CF2)7(CH2)3OMs and tosylate CF3(CF2)7(CH2)3OTs were prepared and labelled with [^18F]F^−. The tosylate produced the desired compound (RCY 15%±3; n=5) when the reaction was heated to 75° C. for 30 min. While the overall yield was modest, the product could be easily isolated and separated from impurities by liquid-liquid extraction using FC-72 and water.
structure (smiles),measurement,setting,value
FCCC(F)(F)C(F)(F)C(F)(F)C(F)(F)C(F)(F)C(F)(F)C(F)(F)C(F)(F)F [CF3(CF2)7(CH2)2F],Solubility in FCs,[1],good solubility in FCs
"FC(F)(F)C(F)(F)C(F)(F)C(F)(F)C(F)(F)C(F)(F)F [PFH, perfluorohexane]",Water Solubility 25° C.,[2],Insoluble
same,Water Solubility 25° C. (bound),[2],(<25 ppm)
"FC(F)(F)C(F)(F)C(F)(F)C(F)(F)C(F)(F)C(F)(F)C(F)(F)C(F)(F)Br [PFOB, perfluorooctylbromide]",Water Solubility 25° C.,[2],Insoluble
FC(F)(F)C(F)(F)C(F)(F)C(F)(F)C(F)(F)C(F)(F)C(F)(F)C(F)(F)CCC[18F] [[^18F]CF3(CF2)7(CH2)3F],Activity in the aqueous layer post-sonication,"[3]; FC-72 and DI water, sonicated without stabilizing surfactants",no activity was found in the aqueous layer
same,Free [18F]F− by radioHPLC and radioTLC,[3]; FC-72 solution extracted with water periodically over 4 h,no evidence of free [^18F]F^−
same,Loss of fluoride in vitro / in solution,[3]; left in solution over the timeframe of the imaging studies,no signs of loss of fluoride; also recorded: stable with respect to loss of fluoride in vitro
